Measurements as given in patent US20260217765A1, “NOVEL ANTIMICROBIAL PEPTIDE DESIGNED FROM DUCK-DERIVED ANTIMICROBIAL PEPTIDE ANDUSE THEREOF” (INDUSTRY-ACADEMIC COOPERATION FOUNDATION, CHOSUN UNIVERSITY, priority 2023, published 2026).
Values after ≈ are worked out from the molar mass of the structure shown. Peptide text beside a SMILES is read from it.

Tests used:
[1] = test system: Staphylococcus aureus ATCC 25923; type: cell-based; details: ATCC 25923
Text: (§1) To compare the antimicrobial activity of the peptides prepared in <Example 1>, the minimum inhibitory concentration (MIC), […] measured. Here, the minimal inhibitory concentration (MIC) refers to the lowest concentration of a substance that prevents visible bacterial growth.
(§2) Specifically, the bacterial strains listed in Table 2 below were obtained and cultured in media suitable for each strain until the mid-log phase. The cultures were then diluted to a concentration of 2×10^4 cells/100 μL and prepared in microtiter plates (Nunc, USA). Subsequently, serial 2-fold dilutions of the peptides prepared in Example 1 were prepared, and 10 μL of each dilution was added to the wells, and the plates were incubated at 37° C. for 18 hours. Absorbance at 600 nm was measured using a microtiter plate reader (Merck ELISA reader, Germany) to determine the MIC values for each bacterial strain. The parent peptide dCATH was used as a control.

[2] = test system: Bacillus cereus KCTC 2508; type: cell-based
Text: as §1, §2

[3] = test system: Acinetobacter baumannii KCTC 1017; type: cell-based; details: KCTC 1017
Text: as §1, §2

[4] = test system: Escherichia coli ATCC 25922; type: cell-based
Text: as §1, §2

[5] = test system: Listeria monocytogenes KCTC 3710; type: cell-based
Text: as §1, §2

[6] = test system: Pseudomonas aeruginosa ATCC 27853; type: cell-based
Text: as §1, §2

[7] = test system: Acinetobacter baumannii_isolate 5 (antibiotic-resistant); type: cell-based, Acinetobacter baumannii; details: isolate 5 (antibiotic-resistant)
Text: as §1, §2

[8] = test system: Acinetobacter baumannii_isolate 18 (antibiotic-resistant); type: cell-based, Acinetobacter baumannii; details: isolate 18 (antibiotic-resistant)
Text: as §1, §2

[9] = test system: Acinetobacter baumannii_isolate15 (antibiotic-resistant); type: cell-based, Acinetobacter baumannii; details: isolate15 (antibiotic-resistant)
Text: as §1, §2

[10] = test system: Acinetobacter baumannii_isolate 3 (antibiotic-resistant); type: cell-based, Acinetobacter baumannii; details: isolate 3 (antibiotic-resistant)
Text: as §1, §2

[11] = test system: Acinetobacter baumannii_isolate 1 (antibiotic-resistant); type: cell-based, Acinetobacter baumannii; details: isolate 1 (antibiotic-resistant)
Text: as §1, §2

[12] = test system: Acinetobacter baumannii_isolate 26 (antibiotic-resistant); type: cell-based, Acinetobacter baumannii; details: isolate 26 (antibiotic-resistant)
Text: as §1, §2

[13] = test system: Acinetobacter baumannii_isolate 2 (antibiotic-resistant); type: cell-based, Acinetobacter baumannii; details: isolate 2 (antibiotic-resistant)
Text: as §1, §2

[14] = test system: Acinetobacter baumannii_isolate 7 (antibiotic-resistant); type: cell-based, Acinetobacter baumannii; details: isolate 7 (antibiotic-resistant)
Text: as §1, §2

[15] = test system: Acinetobacter baumannii_isolate 10 (antibiotic-resistant); type: cell-based, Acinetobacter baumannii; details: isolate 10 (antibiotic-resistant)
Text: as §1, §2

[16] = test system: Acinetobacter baumannii_isolate 22 (antibiotic-resistant); type: cell-based, Acinetobacter baumannii; details: isolate 22 (antibiotic-resistant)
Text: as §1, §2

[17] = test system: Acinetobacter baumannii_isolate 13 (antibiotic-resistant); type: cell-based, Acinetobacter baumannii; details: isolate 13 (antibiotic-resistant)
Text: as §1, §2

[18] = test system: Acinetobacter baumannii_isolate11 (antibiotic-resistant); type: cell-based, Acinetobacter baumannii; details: isolate11 (antibiotic-resistant)
Text: as §1, §2

[19] = test system: Acinetobacter baumannii_isolate 12 (antibiotic-resistant); type: cell-based, Acinetobacter baumannii; details: isolate 12 (antibiotic-resistant)
Text: as §1, §2

[20] = test system: Acinetobacter baumannii_isolate 14 (antibiotic-resistant); type: cell-based, Acinetobacter baumannii; details: isolate 14 (antibiotic-resistant)
Text: as §1, §2

[21] = test system: Acinetobacter baumannii_isolate21 (antibiotic-resistant); type: cell-based, Acinetobacter baumannii; details: isolate21 (antibiotic-resistant)
Text: as §1, §2

[22] = test system: Acinetobacter baumannii_isolate 25 (antibiotic-resistant); type: cell-based, Acinetobacter baumannii; details: isolate 25 (antibiotic-resistant)
Text: as §1, §2

[23] = test system: Acinetobacter baumannii_isolate 19 (antibiotic-resistant); type: cell-based, Acinetobacter baumannii; details: isolate 19 (antibiotic-resistant)
Text: as §1, §2

[24] = test system: Acinetobacter baumannii_isolate16 (antibiotic-resistant); type: cell-based, Acinetobacter baumannii; details: isolate16 (antibiotic-resistant)
Text: as §1, §2

[25] = test system: Acinetobacter baumannii_isolate20 (antibiotic-resistant); type: cell-based, Acinetobacter baumannii; details: isolate20 (antibiotic-resistant)
Text: as §1, §2

[26] = test system: Acinetobacter baumannii_isolate 8 (antibiotic-resistant); type: cell-based, Acinetobacter baumannii; details: isolate 8 (antibiotic-resistant)
Text: as §1, §2

[27] = test system: Acinetobacter baumannii_isolate 23 (antibiotic-resistant); type: cell-based, Acinetobacter baumannii; details: isolate 23 (antibiotic-resistant)
Text: as §1, §2

[28] = test system: Acinetobacter baumannii_isolate 24 (antibiotic-resistant); type: cell-based, Acinetobacter baumannii; details: isolate 24 (antibiotic-resistant)
Text: as §1, §2

[29] = test system: Acinetobacter baumannii_isolate 4 (antibiotic-resistant); type: cell-based, Acinetobacter baumannii; details: isolate 4 (antibiotic-resistant)
Text: as §1, §2

[30] = test system: Acinetobacter baumannii_isolate 17 (antibiotic-resistant); type: cell-based, Acinetobacter baumannii; details: isolate 17 (antibiotic-resistant)
Text: as §1, §2

[31] = test system: Acinetobacter baumannii_isolate 9 (antibiotic-resistant); type: cell-based, Acinetobacter baumannii; details: isolate 9 (antibiotic-resistant)
Text: as §1, §2

[32] = test system: Acinetobacter baumannii_isolate 6 (antibiotic-resistant); type: cell-based, Acinetobacter baumannii; details: isolate 6 (antibiotic-resistant)
Text: as §1, §2

| MIC [1] [µM] | MIC [2] [µM] | MIC [3] [µM] | MIC [4] [µM] | MIC [5] [µM] | MIC [6] [µM] | MIC [7] [µM] | MIC [8] [µM] | MIC [9] [µM] | MIC [10] [µM] | MIC [11] [µM] | MIC [12] [µM] | MIC [13] [µM] | MIC [14] [µM] | MIC [15] [µM] | MIC [16] [µM] | MIC [17] [µM] | MIC [18] [µM] | MIC [19] [µM] | MIC [20] [µM] | Structure (SMILES) | other results |
| --- | --- | --- | --- | --- | --- | --- | --- | --- | --- | --- | --- | --- | --- | --- | --- | --- | --- | --- | --- | --- | --- |
| 2 (≈ 4.87 µg/mL) | 2 (≈ 4.87 µg/mL) | 1 (≈ 2.44 µg/mL) | 2 (≈ 4.87 µg/mL) | 2 (≈ 4.87 µg/mL) | 2 (≈ 4.87 µg/mL) | 1 (≈ 2.44 µg/mL) | 1 (≈ 2.44 µg/mL) | 2 (≈ 4.87 µg/mL) | 1 (≈ 2.44 µg/mL) | 1 (≈ 2.44 µg/mL) | 1 (≈ 2.44 µg/mL) | 1 (≈ 2.44 µg/mL) | 1 (≈ 2.44 µg/mL) | 2 (≈ 4.87 µg/mL) | 1 (≈ 2.44 µg/mL) | 1 (≈ 2.44 µg/mL) | 1 (≈ 2.44 µg/mL) | 1 (≈ 2.44 µg/mL) | 2 (≈ 4.87 µg/mL) | CC[C@H](C)[C@H](NC(=O)[C@H](C)NC(=O)[C@H](CC(C)C)NC(=O)[C@@H]1CCCN1C(=O)[C@@H](NC(=O)[C@H](CC(C)C)NC(=O)[C@H](CCC(N)=O)NC(=O)[C@H](C)NC(=O)[C@H](C)NC(=O)[C@H](CCCNC(=N)N)NC(=O)[C@@H](N)CCCCN)C(C)C)C(=O)N[C@@H](CCCCN)C(=O)N[C@H](C(=O)N[C@@H](Cc1ccc(O)cc1)C(=O)N[C@@H](CCCNC(=N)N)C(=O)N[C@@H](C)C(=O)N[C@@H](Cc1c[nH]c2ccccc12)C(=O)N[C@@H](CCCCN)C(=O)N[C@@H](CCCNC(=N)N)C(=O)N[C@@H](CCCNC(=N)N)C(N)=O)[C@@H](C)CC [dCATH-A3] (H-KRAAQLVPLAIKIYRAWKRR-NH2; N-terminus assumed) | MIC [21]: 4 µM (≈ 9.75 µg/mL); MIC [22]: 1 µM (≈ 2.44 µg/mL); MIC [23]: 1 µM (≈ 2.44 µg/mL); MIC [24]: 1 µM (≈ 2.44 µg/mL); MIC [25]: 1 µM (≈ 2.44 µg/mL); MIC [26]: 1 µM (≈ 2.44 µg/mL); MIC [27]: 1 µM (≈ 2.44 µg/mL); MIC [28]: 1 µM (≈ 2.44 µg/mL); MIC [29]: 1 µM (≈ 2.44 µg/mL); MIC [30]: 1 µM (≈ 2.44 µg/mL); MIC [31]: 1 µM (≈ 2.44 µg/mL); MIC [32]: 2 µM (≈ 4.87 µg/mL) |
| 2 (≈ 4.94 µg/mL) | 2 (≈ 4.94 µg/mL) | 2 (≈ 4.94 µg/mL) | 2 (≈ 4.94 µg/mL) | 2 (≈ 4.94 µg/mL) | 2 (≈ 4.94 µg/mL) | 2 (≈ 4.94 µg/mL) | 2 (≈ 4.94 µg/mL) | 2 (≈ 4.94 µg/mL) | 2 (≈ 4.94 µg/mL) | 2 (≈ 4.94 µg/mL) | 2 (≈ 4.94 µg/mL) | 2 (≈ 4.94 µg/mL) | 2 (≈ 4.94 µg/mL) | 4 (≈ 9.87 µg/mL) | 2 (≈ 4.94 µg/mL) | 2 (≈ 4.94 µg/mL) | 2 (≈ 4.94 µg/mL) | 2 (≈ 4.94 µg/mL) | 2 (≈ 4.94 µg/mL) | CC[C@H](C)[C@H](NC(=O)[C@H](C)NC(=O)[C@H](CC(C)C)NC(=O)[C@H](CCCCN)NC(=O)[C@@H](NC(=O)[C@H](CC(C)C)NC(=O)[C@H](CCC(N)=O)NC(=O)[C@H](C)NC(=O)[C@H](C)NC(=O)[C@H](CCCNC(=N)N)NC(=O)[C@@H](N)CCCCN)C(C)C)C(=O)N[C@@H](CCCCN)C(=O)N[C@H](C(=O)N[C@@H](Cc1ccc(O)cc1)C(=O)N[C@@H](CCCNC(=N)N)C(=O)N[C@@H](C)C(=O)N[C@@H](Cc1c[nH]c2ccccc12)C(=O)N[C@@H](CCCCN)C(=O)N[C@@H](CCCNC(=N)N)C(=O)N[C@@H](CCCNC(=N)N)C(N)=O)[C@@H](C)CC [dCATH-A4] (H-KRAAQLVKLAIKIYRAWKRR-NH2; N-terminus assumed) | MIC [21]: 2 µM (≈ 4.94 µg/mL); MIC [22]: 2 µM (≈ 4.94 µg/mL); MIC [23]: 2 µM (≈ 4.94 µg/mL); MIC [24]: 2 µM (≈ 4.94 µg/mL); MIC [25]: 2 µM (≈ 4.94 µg/mL); MIC [26]: 2 µM (≈ 4.94 µg/mL); MIC [27]: 2 µM (≈ 4.94 µg/mL); MIC [28]: 2 µM (≈ 4.94 µg/mL); MIC [29]: 2 µM (≈ 4.94 µg/mL); MIC [30]: 2 µM (≈ 4.94 µg/mL); MIC [31]: 2 µM (≈ 4.94 µg/mL); MIC [32]: 1 µM (≈ 2.47 µg/mL) |
| 1 (≈ 2.48 µg/mL) | 1 (≈ 2.48 µg/mL) | 1 (≈ 2.48 µg/mL) | 1 (≈ 2.48 µg/mL) | 1 (≈ 2.48 µg/mL) | 1 (≈ 2.48 µg/mL) | 1 (≈ 2.48 µg/mL) | 1 (≈ 2.48 µg/mL) | 1 (≈ 2.48 µg/mL) | 1 (≈ 2.48 µg/mL) | 1 (≈ 2.48 µg/mL) | 1 (≈ 2.48 µg/mL) | 1 (≈ 2.48 µg/mL) | 1 (≈ 2.48 µg/mL) | 1 (≈ 2.48 µg/mL) | 2 (≈ 4.97 µg/mL) | 1 (≈ 2.48 µg/mL) | 1 (≈ 2.48 µg/mL) | 1 (≈ 2.48 µg/mL) | 1 (≈ 2.48 µg/mL) | CC[C@H](C)[C@H](NC(=O)[C@H](C)NC(=O)[C@H](CCCCN)NC(=O)[C@H](CCCCN)NC(=O)[C@@H](NC(=O)[C@H](CC(C)C)NC(=O)[C@H](CCC(N)=O)NC(=O)[C@H](C)NC(=O)[C@H](C)NC(=O)[C@H](CCCNC(=N)N)NC(=O)[C@@H](N)CCCCN)C(C)C)C(=O)N[C@@H](CCCCN)C(=O)N[C@H](C(=O)N[C@@H](Cc1ccc(O)cc1)C(=O)N[C@@H](CCCNC(=N)N)C(=O)N[C@@H](C)C(=O)N[C@@H](Cc1c[nH]c2ccccc12)C(=O)N[C@@H](CCCCN)C(=O)N[C@@H](CCCNC(=N)N)C(=O)N[C@@H](CCCNC(=N)N)C(N)=O)[C@@H](C)CC [dCATH-A5] (H-KRAAQLVKKAIKIYRAWKRR-NH2; N-terminus assumed) | MIC [21]: 1 µM (≈ 2.48 µg/mL); MIC [22]: 1 µM (≈ 2.48 µg/mL); MIC [23]: 1 µM (≈ 2.48 µg/mL); MIC [24]: 1 µM (≈ 2.48 µg/mL); MIC [25]: 1 µM (≈ 2.48 µg/mL); MIC [26]: 1 µM (≈ 2.48 µg/mL); MIC [27]: 1 µM (≈ 2.48 µg/mL); MIC [28]: 2 µM (≈ 4.97 µg/mL); MIC [29]: 1 µM (≈ 2.48 µg/mL); MIC [30]: 1 µM (≈ 2.48 µg/mL); MIC [31]: 1 µM (≈ 2.48 µg/mL); MIC [32]: 1 µM (≈ 2.48 µg/mL) |
